Molecules are shown by their SMILES. “And” between values parts separate entries of the source, which are not always exact repeats. Equal entries are not always repeated. The source made the active and inactive calls.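 The calls were made as follows: active = fitted dose curve reaches 40% lysis signal rise at or below the highest valid concentration tested for that sample; inconclusive = flat fit between 30% and 70%, or poor curve fit; inactive = signal falls, stays flat within 30%, or no crossing.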

Our source for the AC40 values is PubChem BioAssay AID687000 (Broad Institute, 2013).

In the assay the test system is C. neoformans lysis, adenylate kinase release luminescence, 4 h. Description: inducers of Cryptococcus neoformans cell lysis, dose response, AK release luminescence, cherry-picks (AID 687000).
As to `Cc1ccc(C)c(NC(=O)C2(C)CCCN2C(=O)C(C)C)c1` (stereo not drawn), the AC40 was 7.4 µM.
Consider `N#Cc1ccc(C23CC4(C2)[C@H](CN(Cc2ccc(C(F)(F)F)cc2)[C@@H]4c2ccccc2)C3c2ccc(C(F)(F)F)cc2)cc1` (stereo partly drawn), for which the AC40 was > 15 µM (inactive).
`COc1ccc(NC(=S)NCc2ccc(Cl)cc2)c(OC)c1`: the AC40 was 4.16 µM.
As to `Cc1ccccc1NC(=S)NC(=O)CCc1ccccc1`, the AC40 is 4.93 µM.
For `C[C@@H]1CCCCO[C@H](CN(C)C(=O)CCCN(C)C)[C@@H](C)CN([C@H](C)CO)C(=O)c2cc(NC(=O)Cc3ccccc3)ccc2O1`, the AC40 was > 15 µM (inactive).
To `CC(C)NC(=O)Nc1ccc2c(c1)C(=O)N([C@@H](C)CO)C[C@@H](C)[C@@H](CN(C)C(=O)NC(C)C)OCCCC[C@@H](C)O2` belongs > 15 µM (inactive); to `COC(=O)C1=C(C)N(CC(C)C)C(=S)NC1c1cccc(F)c1` (stereo not drawn), > 15 µM (inactive) and 3.43 µM.
As to `CCCCNC(=S)N/N=C/c1ccc(C#N)cc1`, the AC40 is 4.58 µM.
For `CC(C)CC#Cc1cnc2c(c1)C(=O)N([C@H](C)CO)C[C@H](C)[C@H](CN(C)C(=O)c1cccnc1)O2`, the AC40 is > 15 µM (inactive).
To `COC(=O)C1=C(C)N(Cc2ccc(F)cc2)C(=S)NC1c1cccc(Cl)c1` (stereo not drawn) belongs 2.41 µM and 3.17 µM; to `C[C@H]1CN([C@@H](C)CO)S(=O)(=O)c2ccc(Br)cc2O[C@@H]1CN(C)C(=O)CCN1CCCCC1`, > 15 µM (inactive).
For the compound `S=C(Nc1ccccc1)Nc1cc(Cl)ccc1Oc1ccccc1`, the AC40 is > 7.5 µM (inactive).
Regarding `S=C(Nc1ccccc1Oc1ccccc1)Nc1cccc(Cl)c1Cl`, the AC40 was > 15 µM (inactive).
The result for `COC(=O)C1=C(C)N(Cc2ccc(Br)cc2)C(=S)NC1c1ccccc1` (stereo not drawn) reads 2.1 µM; that for `COc1ccc(C(=O)NC(=S)Nc2ccccc2N2CCOCC2)cc1[N+](=O)[O-]`, > 15 µM (inactive); that for `CNC[C@@H]1OCCCC[C@@H](C)Oc2ccc(NC(=O)Nc3ccc4c(c3)OCO4)cc2C(=O)N([C@H](C)CO)C[C@@H]1C`, > 15 µM (inactive).
For `Cc1noc(C)c1S(=O)(=O)Nc1ccc2c(c1)CC(=O)N([C@H](C)CO)C[C@H](C)[C@H](CN(C)S(=O)(=O)c1cccs1)O2`, the AC40 was > 15 µM (inactive).
With `CCCNC(=O)C[C@@H]1CC[C@@H]2[C@H](COc3ccc(NC(=O)CCC)cc3C(=O)N2C)O1`, the AC40 was > 15 µM (inactive).
